Reference: patent publication EP4122917A1, “C2-THIOETHER […] AND TETRAMERS AND USE THEREOF” (priority 2021, dated 2023)

Tested on: SARS-CoV-2 virus carrying the D614G mutation in the S protein
Type: cell-based
Conditions: read-out: IC50 (µM) SARS-CoV-2 (Vero E6)

Row | SMILES | IC50 [µM]
1 | CC(=O)c1ccc(Sc2[nH]c3ccccc3c2C[C@H](NC(=O)CCC(CCC(=O)N[C@@H](Cc2c(Sc3ccc(C(C)=O)cc3)[nH]c3ccccc23)C(=O)O)(CCC(=O)N[C@@H](Cc2c(Sc3ccc(C(C)=O)cc3)[nH]c3ccccc23)C(=O)O)NC(=O)CN)C(=O)O)cc1 [Compound 7c] | 13.3
2 | NCC(=O)NC(CCC(=O)N[C@@H](Cc1c(Sc2ccc([N+](=O)[O-])cc2)[nH]c2ccccc12)C(=O)O)(CCC(=O)N[C@@H](Cc1c(Sc2ccc([N+](=O)[O-])cc2)[nH]c2ccccc12)C(=O)O)CCC(=O)N[C@@H](Cc1c(Sc2ccc([N+](=O)[O-])cc2)[nH]c2ccccc12)C(=O)O [Compound 7a] | 3.02
